Results published in patent US20210253518A1, “KINASE INHIBITOR” (NISSAN CHEMICAL CORPORATION, priority 2018, published 2021).

Tests used:
[1] = test system: YAP, phosphorylated YAP (Ser127), TAZ; experiment: Western blotting of YAP, phosphorylated YAP, TAZ in SKOV3 cells (2D and 3D culture); assay type: cell-based, human; details: 1, 5, 10 μM, 1 hr, both 2D culture and 3D culture, FIG. 1
Description: 2D culture conditions: Human ovarian cancer cell line SKOV3 cultured according to the protocol recommended by DS Pharma Biomedical Co., Ltd. was suspended in McCoy's 5a medium (manufactured by Sigma-Aldrich) containing 15% (v/v) FBS and seeded on a 100 mm plate (manufactured by Corning Incorporated, #430167) at 1,000,000 cells/10 mL and cultured in a CO2 incubator for 24 hr. Successively, k-1:B-1 dissolved in DMSO was added to the culture medium at a final concentration of 1, 5, 10 μM. As the control, the medium without addition and the medium added with DMSO were cultured. After 1 hr, the cells were washed 3 times with ice-cooled phosphate buffered saline (PBS, manufactured by Wako Pure Chemical Industries, Ltd.), 250 μL of RIPA Buffer (manufactured by Wako Pure Chemical Industries, Ltd.) containing a protease inhibitor cocktail (manufactured by Roche) was added, and the cells were lysed with a scraper. […] The supernatant was dispensed, the protein concentration was measured using BCA protein assay kit (manufactured by PIERCE), and then SDS (sodium dodecyl sulfate) gel electrophoresis was performed on the lysate. […] After incubation with a secondary antibody (manufactured by Horseradish peroxidase) linked with an anti-rabbit HRP (horseradish peroxidase) or an anti-mouse HRP, the protein was detected by a chemiluminescence detector (manufactured by BioRad) using ImmunoStar Zeta (manufactured by Wako Pure Chemical Industries, Ltd.).
3D culture conditions: According to the method of patent document (WO 2014/017513), a composition of McCoy's 5a medium (manufactured by Sigma-Aldrich) containing 0.015% (w/v) deacylated gellan gum (KELCOGEL CG-LA, manufactured by Sansho Co., Ltd.), 30 ng/mL human HB-EGF (manufactured by PEPROTECH), and 15% (v/v) FBS was prepared. […] The supernatant was dispensed, the protein concentration was measured using BCA protein assay kit (manufactured by PIERCE), and then SDS gel electrophoresis was performed on the lysate. […]

[2] = test system: full-thickness skin wound; experiment: Mouse full-thickness skin wound model; assay type: in vivo; details: 1 mg/mL, 0.04 mL per wound site every 24 hr until day 12, negative control 854.2±119.2
Description: A full-thickness skin wound in which the skin on the back of a mouse was partially removed was prepared as described below, and the wound therapy promoting effect of the compound was evaluated by comparing the reduction rate of the wound area.
Compound K-1:J-1 was dissolved in a solvent (10% Pluronic F-68, 2% Propylene Glycol, 20 mM Tris buffer (pH 8.5)) at a concentration of 1 mg/mL, and administered by adding dropwise to the wound site (0.04 mL per one wound site). To the negative control, the solvent alone was administered by dropwise addition.
As the mouse, male BKS.Cg-Dock7m+/+Leprdb/J, 7-week-old, was purchased from CHARLES RIVER LABORATORIES JAPAN, INC. After removing the hair on the back, an 8 mm full-thickness skin wound was prepared using biopsy trepan (Kai Corporation) and protected with a coating material (Tegaderm transparent dressing, 3M). The wound preparation date was set as day 1, and 1 mg/mL compound K-1:J-1 was added dropwise at a dose of 0.04 mL per wound site every 24 hr until day 12. The area of the wound site was measured on days 1, 3, 6, 9, 13. The wound area on day 1 was set to 100%, and the total measured area was calculated as a percentage (%) with respect to the wound preparation date. Conducted in 6 cases in each group.

Row | Compound | phosphorylation of YAP [1] | total TAZ protein amount in the cell [1] | total YAP protein amount in the cell [1] | area under the wound area ratio (Area Under the Curve (AUC)) [2] [%×day]
1 | CC/C(=N\NC(=O)C(C)Nc1ccccc1)c1ccc(O)c(C)c1O (stereo not shown) [k-1:B-1] | suppressed | increased | increased | –
2 | CC/C(=N\NC(=O)NCc1cccc(O)c1)c1ccc(O)c(C)c1O [k-1:J-1] | – | – | – | 659.6±163.7
